Assay results taken from patent US8304425B2, “Pyrrolidinone, pyrrolidine-2,5-dione, pyrrolidine and thiosuccinimide derivatives, compositions and methods for treatment of cancer” (ArQule, Inc., priority 2007, dated 2012).
Counter-ions that a name gives are not always drawn. Like-named read-outs stand apart in the source and are kept apart here. Where a SMILES comes first, the peptide text is derived from it. The star is where a group is joined. Cbz = O=C(OCc1ccccc1)*; CH2F = FC*

How the values were obtained:
HT29 cells [1] = test: MTS assay; assay type: cell-based; details: then 48 hours drug-free medium, MTS readout
Method: HT29 cells were seeded in 96-well plates at 1,800 cells/well overnight in medium with 10% FBS. The next day, cells were treated with increasing concentrations of compounds for 24 hours at 37° C. After the treatments, the compound-containing medium was removed, cells were washed twice with PBS, and incubated in drug-free medium containing 10% FBS for an additional 48 hours. After addition of MTS and PMS for 4 hours at concentrations of 2 mg/mL and 0.92 mg/mL, respectively, the results were quantitated by spectrophotometry at λ=490 nm and IC50 for each compound was determined.

HT29 cells [2] = test: Annexin V-Fluos cell death high content imaging after met siRNA transfection; assay type: cell-based; details: increased concentrations of caspase inhibitor for 1 additional day after transfection
Method: Exponentially growing HT29 cells were plated in black 96-well plates at 5,000 cells/well overnight in medium with 10% FBS. The next day, cells were transiently transfected for 2 days using DharmaFECT 4 reagent with a pool of four met-specific 21-nucleotide RNA oligonucleotides forming a 19-bp duplex core with 2-nucleotide 3′ overhang in combination (Dharmacon, Inc., Lafayette, Colo.). Transfection of gapdh siRNA (Dharmacon, Inc.) and of a non-targeting siRNA under the same conditions was done in parallel as controls (Dharmacon, Inc.). Cells were then incubated in the absence or the presence of increasing concentrations of ZvAD-FMK, an irreversible caspase inhibitor for 1 additional day. Cells were incubated for at least 10 minutes in a labeling solution (10 mM HEPES, 140 mM NaCl and 6 mM CaCl2) containing […] Hoescht 33342 (blue channel; Molecular Probes/Invitrogen Corp., Natick, Mass.), 500 times diluted Annexin V-Fluos (green channel; Roche Applied Science, Indianapolis, Ind.) and 1 μg/ml propidium iodide (red channel; Roche Applied Science). High content image acquisition and analysis were carried out using a Beckman Coulter IC100 Cytometer. The program was set to take four images per well. […] Images were processed and numbers of positive cells for each channel and each condition were determined using Cytoshop 2.1 software (Beckman Coulter, Inc.). […]

[3] = target: T1, Recombinant unphosphorylated c-Met comprising residues 1038-1346 (Homo sapiens, UniProt P08581); test: c-Met 33P assay; assay type: biochemical; details: 15 minutes preincubation, 100 μM ATP, IGF-1Rtide substrate, read-out: c-Met, p33 assay
T1 construct: The DNA fragment encoding the kinase domain (1038-1346) was inserted into Novagen vector pet28a; His6 (N); made in house; host or cells: E. coli BL21(DE3)RIL
From the text: cDNA of full-length c-Met purchased from Origen Technologies was used as template for PCR amplification. The DNA fragment encoding the kinase domain (1038-1346) was inserted into Novagen vector pet28a between Nco1 and Sal1 sites. The primers were designed to contain a six-histidine tag to the N-terminus. In order to express dephosphorylated c-Met kinase protein, a tyrosine phosphatase PTP1B (1-283) was sequentially ligated into the made construct between Sal1 and NotI sites. A second ribosome binding site was incorporated in the PTP1B primer after the Sal1 site. The N-terminal His-tagged proteins were expressed in Circlegrow broth (Q-Biogen). The transformed E. coli cell line BL21(DE3)RIL (Stratagene) was cultured to OD=0.8 at 37° C. and induced with 0.3 mM of IPTG for overnight at 12° C. The co-expressed protein was purified by metal-chelation chromatography followed by anion and cation columns. In brief, 4 liters of cells were lysed by sonication in 140 ml buffer containing 20 mM MOPS pH=6.5, 200 mM NaCl, 7.5% glycerol, 0.1% Igepal, supplied with 1 mM PMSF. The supernatant was obtained by centrifugation at 50,000 g for 30 minutes and followed by incubation with 8 mL of Ni-NTA His Bind resin (Novagen) at 4° C. for one hour. A second step 50 mL wash buffer (with 100 mM NaCl and 5 mM imidazole) was applied after initial wash with the lysis buffer. Protein was eluted by 200 mM imidazole pH=8.5, 100 mM NaCl and 7.5% glycerol and directly cleared by passing 10 mL QFF column. The salt concentration and the pH value of the protein flow through were adjusted to 50 mM and 7.5 by dilution, and then loaded to 1 mL SP FF column. The protein was further gel-filtered in an equilibrium buffer of 20 mM TrisHCl pH=8.5, 150 mM NaCl, 7.5% glycerol and 2 mM DTT. The monomeric unphosphorylated c-Met protein was concentrated to 30 mg/mL for storage at −80° C.
Recombinant unphosphorylated c-Met comprising residues 1038-1346 (12.5 ng) was pre-incubated with increasing concentrations of compounds for 15 minutes at room temperature. Following preincubation with compounds, 100 μM of IGF-1Rtide substrate and 100 μM ATP containing 2.5 μCi [^33P-γATP] was added to the mixture. The reaction was carried out for 30 minutes in a Reaction Buffer containing 8 mM MOPS-NaOH pH=7.0, 200 μM EDTA, 5 mM Magnesium acetate, 200 μM dithiothreitol (DTT) and 10 mM Na3VO4. The reaction was then terminated with 10 μL of 3% phosphoric acid. Ten μL were transferred onto a filterplate and were washed 3-times with 1% phosphoric acid; counts were read with a microbeta counter, and IC50 for c-Met inhibition was determined for each compound.

[4] = Homo sapiens, HT-29, 24 hours treatment
[5] = 24 hours treatment, read-out: HT-29, IC50

T1 sequence (P08581 1038-1346): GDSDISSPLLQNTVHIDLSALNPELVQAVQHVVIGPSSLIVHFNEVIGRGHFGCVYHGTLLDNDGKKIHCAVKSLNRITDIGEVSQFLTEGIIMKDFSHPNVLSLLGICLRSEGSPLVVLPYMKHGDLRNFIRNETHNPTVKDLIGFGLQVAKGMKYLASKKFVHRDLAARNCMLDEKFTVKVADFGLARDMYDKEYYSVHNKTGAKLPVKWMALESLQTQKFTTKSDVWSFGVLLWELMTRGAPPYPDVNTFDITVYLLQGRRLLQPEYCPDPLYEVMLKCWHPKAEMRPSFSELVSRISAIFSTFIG

Row | IC50 (HT29 cells [1]; [4]) [µM] | melting point [°C] | IC50 [3] [µM] | Molecule | levels of cell death in met siRNA transfected cells (HT29 cells [2]) | IC50 (HT29 cells [1]; [5]) [µM]
1 | ≥ 10 | 191 to 194 |  | COc1cccc([C@@H]2CNC(=O)[C@H]2c2cn3c4c(cccc24)CCC3)c1 (racemic) [Example 6, (±)-trans-3-(5,6-Dihydro-4H-pyrrolo[3,2,1-ij]quinolin-1-yl)-4-(3-methoxy-phenyl)-pyrrolidin-2-one] |  | 
2 |  |  |  | COC(=O)C[C@H](NC(=O)[C@H](C)NC(=O)[C@@H](NC(=O)OCc1ccccc1)C(C)C)C(=O)CF [ZvAD-FMK] (Cbz-Val-Ala-Asp(OMe)-CH2F) | decreased the levels of cell death | 
3 | ≥ 10 | 278 to 279 | ≥ 10 | CCNC(=O)N1C[C@@H](c2c[nH]c3ccccc23)[C@H](c2cn3c4c(cccc24)CCC3)C1 [Example 8, (3R,4R)-3-(5,6-dihydro-4H-pyrrolo[3,2,1-ij]quinolin-1-yl)-4-(1H-indol-3-yl)-pyrrolidine-1-carboxylic acid ethylamide] |  | 
4 |  | 239 to 240 |  | c1ccc2c([C@@H]3CNC[C@H]3c3cn4c5c(cccc35)CCC4)c[nH]c2c1 (as salt: HCl) [Example 7, 1-[(3R,4R)-4-(1H-indol-3-yl)-pyrrolidin-3-yl]-5,6-dihydro-4H-pyrrolo[3,2,1-ij]quinoline] |  | 
5 | ≥ 10 | 202 to 204 | ≥ 10 | CC(C)(C)CC(=O)N1C[C@@H](c2c[nH]c3ccccc23)[C@H](c2cn3c4c(cccc24)CCC3)C1 [Example 12, 1-[(3R,4R)-3-(5,6-dihydro-4H-pyrrolo[3,2,1-ij]quinolin-1-yl)-4-(1H-indol-3-yl)-pyrrolidin-1-yl]-3,3-dimethyl-butan-1-one] |  | 
6 | ≤ 1 | 241 to 243 | 1 to 10 | O=C1NC[C@@H](c2c[nH]c3ccccc23)[C@@H]1c1cn2c3c(cccc13)CCC2 (racemic) [Example 4, (±)-trans-3-(5,6-dihydro-4H-pyrrolo[3,2,1-ij]quinolin-1-yl)-4-(1H-indol-3-yl)-pyrrolidin-2-one] |  | 
7 | ≥ 10 | 115 to 125 | ≥ 10 | O=S(=O)(c1ccccc1)N1C[C@@H](c2c[nH]c3ccccc23)[C@H](c2cn3c4c(cccc24)CCC3)C1 [Example 9, 1-[(3R,4R)-1-benzenesulfonyl-4-(1H-indol-3-yl)-pyrrolidin-3-yl]-5,6-dihydro-4H-pyrrolo[3,2,1-ij]quinoline] |  | 
8 | ≥ 10 | 82 to 85 |  | O=C1NC[C@@H](c2cccc(C(F)(F)F)c2)[C@@H]1c1cn2c3c(cccc13)CCC2 (racemic) [Example 5, (±)-trans-3-(5,6-Dihydro-4H-pyrrolo[3,2,1-ij]quinolin-1-yl)-4-(3-trifluoromethyl-phenyl)-pyrrolidin-2-one] |  | 
9 | ≥ 10 | 100 to 115 | ≥ 10 | CC(C)S(=O)(=O)N1C[C@@H](c2c[nH]c3ccccc23)[C@H](c2cn3c4c(cccc24)CCC3)C1 [Example 10, 1-[(3R,4R)-4-(1H-indol-3-yl)-1-(propane-2-sulfonyl)-pyrrolidin-3-yl]-5,6-dihydro-4H-pyrrolo[3,2,1-ij]quinoline] |  | 
10 | ≤ 1 |  | ≥ 10 | c1ccc2c([C@@H]3CNC[C@H]3c3cn4c5c(cccc35)CCC4)c[nH]c2c1 [Example 7, 1-[(3R,4R)-4-(1H-indol-3-yl)-pyrrolidin-3-yl]-5,6-dihydro-4H-pyrrolo[3,2,1-ij]quinoline] |  | 
11 | ≥ 10 | 253 to 255 | ≥ 10 | O=C(C1CCC1)N1C[C@@H](c2c[nH]c3ccccc23)[C@H](c2cn3c4c(cccc24)CCC3)C1 [Example 11, cyclobutyl-[(3R,4R)-3-(5,6-dihydro-4H-pyrrolo[3,2,1-ij]quinolin-1-yl)-4-(1H-indol-3-yl)-pyrrolidin-1-yl]-methanone] |  | 
12 | ≤ 1 | 260 to 262 | ≥ 10 | O=C1NCC(c2cn3c4c(cccc24)CCC3)C1c1c[nH]c2ccccc12 (mixture of isomers) [Example 1, 4-(5,6-dihydro-4H-pyrrolo[3,2,1-ij]quinolin-1-yl)-3-(1H-indol-3-yl)-pyrrolidin-2-one] |  | 

Row | Molecule | IC50 (HT29 cells [1]; [4]) [µM] | melting point [°C] | IC50 [3] [µM] | levels of cell death in met siRNA transfected cells (HT29 cells [2]) | IC50 (HT29 cells [1]; [5]) [µM]
13 | (3R,4R)-4-(5,6-dihydro-4H-pyrrolo[3,2,1-ij]quinolin-1-yl)-3-(1H-indol-3-yl)-pyrrolidin-2-one and (3R,4R)-3-(5,6-dihydro-4H-pyrrolo[3,2,1-ij]quinolin-1-yl)-4-(1H-indol-3-yl)-pyrrolidin-2-one (1/1 mixture) [Example 3] |  |  | ≥ 10 |  | ≤ 1
14 | (3R,4R)-4-(5,6-dihydro-4H-pyrrolo[3,2,1-ij]quinolin-1-yl)-3-(1H-indol-3-yl)-5-thioxo-pyrrolidin-2-one and (3R,4R)-3-(5,6-dihydro-4H-pyrrolo[3,2,1-ij]quinolin-1-yl)-4-(1H-indol-3-yl)-5-thioxo-pyrrolidin-2-one (1/1 mixture) [Example 2] |  |  | ≤ 1 |  | ≤ 1
